The subject of this test is nasal epithelium. The test is described as follows: Transepidermal water loss of the nasal epithelium (TEWAMETER 300 evaporation meter). It is filed as in vivo. Particulars: single nostril, after application, compared with basal state. Here is the method:
A single nostril is administered the test composition of Example 1 or a comparator solution, and transepidermal water loss is measured using an evaporation meter ([…] 300; Courage+Khazaka electronic GmbH, Germany) using the original probe. Subjects are positioned in a seated posture and hold their breath during measurements. Basal measurements are performed prior to application of a test composition.

`O` [water]: the transepidermal water loss result is “Little change”.
